Measured values reported in patent publication US10912741B2, “Prevention of liver cancer with safranal-based formulations” (United Arab Emirates University, priority 2019, dated 2021).

Tests used:
catalase (CAT) = experiment: Catalase activity in liver homogenate, DEN/2-AAF hepatocarcinogenesis model; assay type: in vivo, albino Wistar rats; conditions: mean±SEM, 8 rats
Experimental: The experimental hepatocarcinogenesis model was developed according to a protocol by […] et al. that was adapted for our purposes. To initiate and promote hepatocarcinogenesis, diethylnitrosamine (DEN) and 2-acetylaminofluorene (2-AAF) were used, respectively. For hepatocarcinogenesis initiation in this model, a single DEN dose (200 mg/kg b.wt.) dissolved in saline was injected intraperitoneally. After initiation, all rats underwent one period of 5-days fasting, as mitotic proliferative stimuli. To promote hepatocarcinogenesis, 2-acetylaminofluorene (2-AAF) was introduced in the form of six daily intragastric doses (30 mg/kg in 1% Tween 80); two weeks after DEN treatment. […] at doses of 25 mg/kg by weight (b.wt.) and 50 mg/kg b.wt, was administrated orally to rats. These doses have been reported to suppress chemically-induced oxidative damage in rats. A total of 40 adult male albino Wistar rats were randomly divided into […] (n=8) and were subjected to different treatments. Group 1 (control) was orally administered distilled water (5 ml/kg b.wt.) throughout the experimental duration and were injected with a single dose of saline. Group 2 ([…] only) was subjected to a safranal dose (50 mg/kg b.wt.) through oral administration for the duration of the experimental period. Hepatocarcinogenesis was induced by DEN and promoted by 2-AAF, as reported previously, in group 3 (HCC). […] Glutathione (GSH) content was determined by analyzing liver homogenates, according to the method of Van Dooran et al. The assay depends on measuring yellow 5-thiol-2-nitrobenzoate absorbance at 412 nm. Glutathione-S-transferase (GST) activity was determined using the method of Habig et al. GST catalyzes the conjugation of GSH thiol group with 1-Chloro-2,4-dinitrobenzene (CDNB), which can be measured by determining the increase in absorbance at 340 nm. […] CAT decomposes hydrogen peroxide (H2O2) to oxygen and water; therefore, the activity of CAT was evaluated according to by the exponential decomposition of H2O2 at 240 nm. […] UV-160-Shimadzu recording spectrophotometer was used to record absorbances. […]

[1] = tested on: caspase-3 and -7 in HepG2 cells; experiment: Caspase-3 and -7 assay (Caspase-Glo 3/7); assay type: cell-based, human; conditions: 1 mM, 48 hours
Experimental: HepG2, were cultured in RPMI 1640 medium (HyClone, USA) and 1% of 100 U/ml penicillin and 100 ug/ml streptomycin (Sigma, USA) supplemented with 10% fetal bovine serum (Sigma, USA) at 37° C. in a humidified 5% CO2 atmosphere. Cells were sub-cultured each 4-6 days using trypsin 0.25% (Hyclone, USA).
HepG2 cells were seeded in 96-well plates at the density of 10000 cells/well and grown in 100 uL of complete growth medium. Complete growth medium was replaced by serum-free medium after cells were allowed to attach for 24 hours; after which cells were incubated for at least 12 hours. Cells were incubated for 48 hours after treatment with various concentrations of safranal (1 mM, 0.7 mM, 0.5 mM) prepared from 20 mM stock solution. After incubation period, caspase-3 and -7 activities were measured using Caspase-Glo 3/7 luminescent assay kit according to manufacturer's instruction (Promega, USA).

[2] = tested on: human prostate cancer PC-3 cell lines; conditions: PC-3 cell line, reported in the background; cited from earlier work

CC1=C(C=O)C(C)(C)CC=C1 [Safranal, 2,6,6-trimethylcyclohexa-1,3-diene-1-carbaldehyde]
CAT (catalase (CAT); HCC (DEN/2-AAF) rats + safranal high dose 50 mg/kg b.wt. oral, 12 weeks): 145.4512 ± 4.57 unit/mg protein
CAT (catalase (CAT); HCC (DEN/2-AAF) rats + safranal low dose 25 mg/kg b.wt. oral, 12 weeks): 141.38 ± 0.91 unit/mg protein
CAT (catalase (CAT); safranal alone 50 mg/kg b.wt. oral, no DEN (group 2)): 143.75 ± 1.2 unit/mg protein
caspase-3 and -7 activities [1]: significant increase in caspase-3 and -7 activities
apoptosis [2]: induce apoptosis
